Tests used:
human P‐gp = human P‐gp (Homo sapiens, UniProt P08183); assay: P-gp inhibition assay, bidirectional digoxin permeability in Caco-2 cells; type: cell-based
CYP3A4 mRNA [1] = assay: in vitro; conditions: human
CYP3A4 [2] = assay: PBPK; design: species or system human; conditions: based on simulated midazolam results
OAT3 [3] = target: T1, OAT3 (Homo sapiens, UniProt Q8TCC7); assay: Transporter inhibition in transfected HEK293 cells; type: cell-based
T1 sequence (Q8TCC7 1-542): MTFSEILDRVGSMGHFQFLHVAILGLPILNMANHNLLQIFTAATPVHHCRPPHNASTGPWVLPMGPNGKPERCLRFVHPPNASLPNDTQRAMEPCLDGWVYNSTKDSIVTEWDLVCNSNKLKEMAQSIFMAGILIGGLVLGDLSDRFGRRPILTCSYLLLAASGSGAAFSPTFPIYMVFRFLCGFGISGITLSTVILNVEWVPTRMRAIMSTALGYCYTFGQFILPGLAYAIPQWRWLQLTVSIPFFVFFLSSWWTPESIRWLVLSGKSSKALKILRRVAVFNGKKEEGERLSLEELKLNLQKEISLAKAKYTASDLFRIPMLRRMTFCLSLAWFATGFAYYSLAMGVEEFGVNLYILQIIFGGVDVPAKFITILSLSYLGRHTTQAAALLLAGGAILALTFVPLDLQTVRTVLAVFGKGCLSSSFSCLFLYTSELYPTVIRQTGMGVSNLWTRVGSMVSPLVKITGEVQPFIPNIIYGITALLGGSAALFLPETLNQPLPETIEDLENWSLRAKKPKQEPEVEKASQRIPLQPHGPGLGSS

CYP1A2 mRNA = assay: CYP induction in cultured human hepatocytes
CYP3A4 [4] = conditions: ivosidenib PBPK model; cited from earlier work
OATP1B1 = target: T2, OATP1B1 (Homo sapiens, UniProt Q9Y6L6); assay: Transporter inhibition in transfected HEK293 cells; type: cell-based
T2 sequence (Q9Y6L6 1-691): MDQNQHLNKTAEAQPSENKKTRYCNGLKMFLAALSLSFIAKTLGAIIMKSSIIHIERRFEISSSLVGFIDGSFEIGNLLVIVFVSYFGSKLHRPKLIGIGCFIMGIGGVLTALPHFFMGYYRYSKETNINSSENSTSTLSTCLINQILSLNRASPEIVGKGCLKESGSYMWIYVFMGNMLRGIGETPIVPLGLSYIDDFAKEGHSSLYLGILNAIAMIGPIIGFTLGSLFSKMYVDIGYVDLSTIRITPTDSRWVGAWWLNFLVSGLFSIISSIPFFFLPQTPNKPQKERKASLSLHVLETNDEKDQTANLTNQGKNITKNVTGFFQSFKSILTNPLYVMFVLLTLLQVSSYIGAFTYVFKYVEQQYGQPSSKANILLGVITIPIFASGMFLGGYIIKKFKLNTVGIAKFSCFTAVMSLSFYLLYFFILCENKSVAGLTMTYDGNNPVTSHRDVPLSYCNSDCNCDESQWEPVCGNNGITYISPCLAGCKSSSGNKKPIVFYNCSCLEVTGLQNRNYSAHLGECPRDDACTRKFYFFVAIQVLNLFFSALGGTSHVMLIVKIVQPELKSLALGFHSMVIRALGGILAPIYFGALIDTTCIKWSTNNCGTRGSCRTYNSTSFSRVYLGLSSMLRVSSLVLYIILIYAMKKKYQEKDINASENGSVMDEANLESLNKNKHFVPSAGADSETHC

CYP3A4 mRNA [5] = conditions: human, hepatocytes
OAT1 = target: T3, OAT1 (Homo sapiens, UniProt Q4U2R8); assay: Transporter inhibition in transfected HEK293 cells; type: cell-based
T3 sequence (Q4U2R8 1-563): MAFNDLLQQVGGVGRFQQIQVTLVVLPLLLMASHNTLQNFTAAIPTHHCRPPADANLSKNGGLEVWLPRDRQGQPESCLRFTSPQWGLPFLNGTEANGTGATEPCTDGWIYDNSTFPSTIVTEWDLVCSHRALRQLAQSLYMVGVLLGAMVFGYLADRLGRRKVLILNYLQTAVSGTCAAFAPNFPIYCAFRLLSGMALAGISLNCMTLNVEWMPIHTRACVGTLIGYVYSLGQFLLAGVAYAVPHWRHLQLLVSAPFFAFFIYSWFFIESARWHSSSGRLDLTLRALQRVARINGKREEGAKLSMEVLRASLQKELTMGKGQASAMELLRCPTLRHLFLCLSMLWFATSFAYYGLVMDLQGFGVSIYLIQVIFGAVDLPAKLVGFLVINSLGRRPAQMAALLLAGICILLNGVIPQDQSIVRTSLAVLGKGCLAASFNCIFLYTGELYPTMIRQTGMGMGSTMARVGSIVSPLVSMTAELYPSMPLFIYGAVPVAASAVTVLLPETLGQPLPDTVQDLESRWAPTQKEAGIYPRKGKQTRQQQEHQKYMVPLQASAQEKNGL

OCT2 = target: T4, OCT2 (Homo sapiens, UniProt O15244); assay: Transporter inhibition in transfected HEK293 cells; type: cell-based
T4 sequence (O15244 1-555): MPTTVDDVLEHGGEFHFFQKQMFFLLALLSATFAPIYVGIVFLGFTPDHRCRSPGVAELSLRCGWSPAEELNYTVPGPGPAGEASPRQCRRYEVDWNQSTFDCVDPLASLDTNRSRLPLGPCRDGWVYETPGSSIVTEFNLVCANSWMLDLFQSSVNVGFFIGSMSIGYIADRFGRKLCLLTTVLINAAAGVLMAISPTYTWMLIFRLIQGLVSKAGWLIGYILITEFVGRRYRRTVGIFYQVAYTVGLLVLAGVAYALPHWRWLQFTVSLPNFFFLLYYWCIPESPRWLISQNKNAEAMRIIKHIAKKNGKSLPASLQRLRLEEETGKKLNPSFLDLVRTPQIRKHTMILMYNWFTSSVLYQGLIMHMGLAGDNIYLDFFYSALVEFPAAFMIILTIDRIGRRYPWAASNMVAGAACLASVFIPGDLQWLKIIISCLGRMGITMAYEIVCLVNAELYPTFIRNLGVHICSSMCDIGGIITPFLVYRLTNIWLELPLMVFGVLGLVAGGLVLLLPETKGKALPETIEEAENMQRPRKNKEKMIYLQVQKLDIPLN

CYP2C8 mRNA = assay: CYP induction in cultured human hepatocytes
CYP3A4 [6] = conditions: patients, cited from earlier work
CYP2B6 mRNA = assay: CYP induction in cultured human hepatocytes
CYP2C19 mRNA = assay: CYP induction in cultured human hepatocytes; conditions: all three hepatocyte cultures
CYP2C9 mRNA = assay: CYP induction in cultured human hepatocytes
OATP1B3 = target: T5, OATP1B3 (Homo sapiens, UniProt Q9NPD5); assay: Transporter inhibition in transfected HEK293 cells; type: cell-based
T5 sequence (Q9NPD5 1-702): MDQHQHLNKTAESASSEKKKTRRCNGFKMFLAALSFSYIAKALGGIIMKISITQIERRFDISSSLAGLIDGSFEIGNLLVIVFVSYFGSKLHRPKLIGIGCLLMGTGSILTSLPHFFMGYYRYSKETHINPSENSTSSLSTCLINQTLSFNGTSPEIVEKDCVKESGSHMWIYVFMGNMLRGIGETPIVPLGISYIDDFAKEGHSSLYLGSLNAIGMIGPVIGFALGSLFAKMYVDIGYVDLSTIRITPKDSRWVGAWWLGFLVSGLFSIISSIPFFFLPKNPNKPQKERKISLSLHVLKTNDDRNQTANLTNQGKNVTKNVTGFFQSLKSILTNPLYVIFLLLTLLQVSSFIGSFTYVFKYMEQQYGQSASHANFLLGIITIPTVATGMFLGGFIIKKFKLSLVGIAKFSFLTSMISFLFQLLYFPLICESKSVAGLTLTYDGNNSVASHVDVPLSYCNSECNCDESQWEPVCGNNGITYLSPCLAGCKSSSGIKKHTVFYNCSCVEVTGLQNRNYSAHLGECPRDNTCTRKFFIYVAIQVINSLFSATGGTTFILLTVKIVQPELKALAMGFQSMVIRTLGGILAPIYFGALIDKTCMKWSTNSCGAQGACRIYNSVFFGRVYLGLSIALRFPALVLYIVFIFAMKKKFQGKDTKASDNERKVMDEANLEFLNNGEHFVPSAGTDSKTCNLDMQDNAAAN

OAT3 [7] = target: T1, OAT3; conditions: cited from earlier work
CYP3A4 [8] = conditions: human, in vivo, 600 mg, cited from earlier work
OATP1B1/1B3 = conditions: hepatic uptake, model; cited from earlier work
NTCP = conditions: hepatic uptake, model; cited from earlier work
[9] = cited from earlier work
CYP3A4 [10] = conditions: multiple doses of rifampicin 600 mg q.d.; cited from earlier work
[11] = Venetoclax observed clinical PK; type: in vivo; conditions: human, plasma, oral
OAT3 [12] = conditions: read-out: OAT3 Ki; lowest reported value; cited from earlier work
[13] = human, cultured human hepatocytes

human P‐gp, sequence (P08183 whole entry): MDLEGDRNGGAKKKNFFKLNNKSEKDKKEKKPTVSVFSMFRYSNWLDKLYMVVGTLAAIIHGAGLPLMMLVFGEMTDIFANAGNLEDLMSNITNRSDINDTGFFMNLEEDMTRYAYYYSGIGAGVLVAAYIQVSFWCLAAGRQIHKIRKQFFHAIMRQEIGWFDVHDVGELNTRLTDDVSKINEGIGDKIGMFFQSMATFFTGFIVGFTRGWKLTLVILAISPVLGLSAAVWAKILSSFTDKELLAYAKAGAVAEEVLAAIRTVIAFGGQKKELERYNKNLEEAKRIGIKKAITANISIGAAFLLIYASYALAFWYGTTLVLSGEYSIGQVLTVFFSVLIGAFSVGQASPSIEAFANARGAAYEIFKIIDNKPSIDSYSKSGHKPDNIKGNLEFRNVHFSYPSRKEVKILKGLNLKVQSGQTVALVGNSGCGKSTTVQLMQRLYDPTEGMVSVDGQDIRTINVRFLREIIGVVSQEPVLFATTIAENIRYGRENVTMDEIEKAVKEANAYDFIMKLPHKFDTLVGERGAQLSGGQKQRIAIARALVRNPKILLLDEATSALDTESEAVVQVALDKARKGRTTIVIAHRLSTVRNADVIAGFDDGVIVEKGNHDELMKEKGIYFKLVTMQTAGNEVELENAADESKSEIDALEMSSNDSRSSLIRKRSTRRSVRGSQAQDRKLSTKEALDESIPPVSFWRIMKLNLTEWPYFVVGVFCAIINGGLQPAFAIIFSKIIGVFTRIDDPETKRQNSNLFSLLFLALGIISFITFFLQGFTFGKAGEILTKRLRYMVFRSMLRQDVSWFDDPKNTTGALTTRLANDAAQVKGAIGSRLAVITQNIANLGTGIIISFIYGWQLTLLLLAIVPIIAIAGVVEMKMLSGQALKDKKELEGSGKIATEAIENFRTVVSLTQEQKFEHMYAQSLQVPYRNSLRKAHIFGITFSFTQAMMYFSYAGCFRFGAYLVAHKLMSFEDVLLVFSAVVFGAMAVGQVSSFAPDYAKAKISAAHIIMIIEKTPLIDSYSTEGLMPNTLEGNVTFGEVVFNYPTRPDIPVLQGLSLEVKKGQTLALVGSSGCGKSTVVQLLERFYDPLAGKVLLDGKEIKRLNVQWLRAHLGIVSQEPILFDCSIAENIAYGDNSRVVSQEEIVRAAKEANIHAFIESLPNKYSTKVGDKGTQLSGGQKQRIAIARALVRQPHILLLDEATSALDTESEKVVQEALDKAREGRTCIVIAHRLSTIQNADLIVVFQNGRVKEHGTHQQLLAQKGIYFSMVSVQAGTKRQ

N#Cc1ccnc(N2C(=O)CC[C@H]2C(=O)N(c2cncc(F)c2)[C@H](C(=O)NC2CC(F)(F)C2)c2ccccc2Cl)c1 [Ivosidenib]
IC50 (human P‐gp): 19.6 µM
EC50 (CYP3A4 mRNA [1]): 12.5 ± 9.2 µM
classification as CYP3A4 inducer as per regulatory guidance (CYP3A4 [2]): strong inducer
IC50 (OAT3 [3]): 322 nM
CYP1A2 mRNA induction (CYP1A2 mRNA; 3 donors, 0.05-90 μM once daily 3 days): no significant induction
fm (fraction metabolized, CYP3A4) (CYP3A4 [4]): 0.865
IC50 (OATP1B1): 9.56 µM
CYP3A4 mRNA mean Emax (CYP3A4 mRNA [5]): 78.2 ± 113
IC50 (OAT1): > 65 µM
IC50 (OCT2): > 65 µM
CYP2C8 mRNA mean Emax (CYP2C8 mRNA; human hepatocytes, 3 donors): 3.79 ± 1.28
EC50 at 72 h (CYP2C8 mRNA; [13]): 8.1 ± 3.3 µM
increase of mean 4β‐OHC levels (CYP3A4 [6]; 500 mg ivosidenib): ~ 199%
increase of 4β‐OHC (CYP3A4 [6]; after 28 days of 100 mg b.i.d. and 100–1200 mg q.d. ivosidenib): up to 371%
CYP2B6 mRNA mean Emax (CYP2B6 mRNA; human hepatocytes, 3 donors): 2.85 ± 1.53
EC50 at 72 h (CYP2B6 mRNA; [13]): 2930 ± 650 nM
effect on CYP2C19 mRNA levels (CYP2C19 mRNA): inconclusive
CYP2C9 mRNA mean Emax (CYP2C9 mRNA; human hepatocytes, 3 donors): 3.39 ± 0.63
EC50 at 72 h (CYP2C9 mRNA; [13]): 3.23 ± 1.04 µM
IC50 (OATP1B3): 22.8 µM

CN(Cc1cnc2nc(N)nc(N)c2n1)c1ccc(C(=O)N[C@@H](CCC(=O)O)C(=O)O)cc1 [Methotrexate]
reported methotrexate AUCR with probenecid (OAT3 [7]): 1.57 fold

Cc1ncc2n1-c1ccc(Cl)cc1C(c1ccccc1F)=NC2 [Midazolam]
reduction of midazolam AUC, i.v. (CYP3A4 [8]; iv): 51%
reduction of midazolam AUC, oral (CYP3A4 [8]; po): 92%

CC(C)c1nc(N(C)S(C)(=O)=O)nc(-c2ccc(F)cc2)c1/C=C/[C@@H](O)C[C@@H](O)CC(=O)O [Rosuvastatin]
relative contribution of OATP1B1/1B3 to uptake of rosuvastatin (OATP1B1/1B3): 65%
relative contribution of NTCP to uptake of rosuvastatin (NTCP): 35%

CC1(C)CCC(CN2CCN(c3ccc(C(=O)NS(=O)(=O)c4ccc(NCC5CCOCC5)c([N+](=O)[O-])c4)c(Oc4cnc5[nH]ccc5c4)c3)CC2)=C(c2ccc(Cl)cc2)C1 [Venetoclax]
estimated mean Vss/F from clinical data ([9]; patients): 3.67 L/kg
observed mean CL/F ([9]; venetoclax): 14.9 L/h
decrease of venetoclax AUC (CYP3A4 [10]): ~80%
decrease of venetoclax Cmax (CYP3A4 [10]): ~ 70%
Vd [11]: 0.36 to 1.78 L/kg

COc1ccc2[nH]c([S+]([O-])Cc3ncc(C)c(OC)c3C)nc2c1 (stereo not drawn) [omeprazole, reference compound]
increase in CYP1A2 mRNA levels (CYP1A2 mRNA; prototypical inducer (positive control)): 104 ± 97 fold

CCC1(c2ccccc2)C(=O)NC(=O)NC1=O [phenobarbital, reference compound]
increase in CYP2B6 mRNA levels (CYP2B6 mRNA; prototypical inducer (positive control), human hepatocytes): 13 ± 4.7 fold
